# Data published in patent US4874795A, “Composition for delivery of orally administered drugs and other substances” (priority 1986, dated 1989).
# Where two headings read alike, the source gives them in different places.
# What was measured:
# [1] = rat, in vivo
# Experimental: Tritium labeled (^3 H) vitamin A ([…]; Hoffman LaRoche) was incorporated into a lipid formulation of the following composition: 56 mg. of oleic acid (NuCheck Prep, Inc.); 36 mg. of mono-olein (NuCheck Prep, Inc.) and 6 mg. of lysophosphatidyl choline derived from soy lecithin (A. E. Staley Mfg. Co.). This corresponds to an approximate molar ratio of oleic acid: mono-olein: lysophosphatidyl choline of 2:1:0.1. (The approximate molar percentages of the components were 64.5:32.3:3.2, respectively). The composition was administered to Sprague-Dawley rats (weighing 210-230 gm) by gavage.
# Tritium-labeled vitamin A (7mg. or 0.25 millimoles) was administered to Sprague-Dawley rats (as above) in 99 mg. food grade, refined corn oil (A. E. Staley Mfg. Co.).
# The concentration of vitamin A equivalents in the plasma was measured by obtaining duplicate 0.05 ml. blood samples from the orbital sinus at 0.5, 1, 2, 3, 4, 6, 8 and 24 hours after administration. The blood was collected in hematocrit tubes and centrifuged; the plasma was transferred into tared scintillation vials and weighed. The radioactivity was determined by liquid scintillation counting.
# [2] = excess bile salts, cited from earlier work
# [3] = cited from earlier work
# [4] = cited from earlier work; for absorption in mixed micelle versus alone: mono-olein/sodium taurocholate
# [5] = Capacity and stability of the composition as a vitamin A delivery means; assay type: physicochemical; details: for Viscosity: cold solution
# Experimental: A composition that included oleic acid, monoglyceride and lysophosphatidyl choline as described in Example I was used for characterizing the capacity of the composition for vitamin A (also as described above). Vitamin A was added in batches to the composition as follows: 1st addition, 0.277 mmoles; 2nd, 0.241; 3rd, 0.276; 4th, 0.262 and 5th, 0.285. […] The millimole ratio of the composition was approximately 2:1:0.1 (oleic acid: mono-olein:lysophosphatidyl choline).
# After each addition the approximate amount of time necessary for the complete dissolution of the added vitamin A was recorded, as was the extent of schlierin evident. The time needed to obtain a minimal schlieric effect was generally between 5 minutes and 60 minutes and inversely related to the amount of vitamin A added. After each addition and the achievement of a minimal schlieric effect, the solution was placed in an ice-bath in order to evaluate its stability. The relative viscosity of the cold solution was also recorded. […]
# [6] = cited from earlier work; for biological activity: oral
# [7] = in vivo; cited from earlier work
# [8] = cited from earlier work; remark: listed apart in the source
# [9] = oral, cited from earlier work
# [10] = 1st addition, total 0.277 mmoles
# [11] = 2nd addition, total 0.518 mmoles
# [12] = 3rd addition, total 0.794 mmoles
# [13] = 4th addition, total 1.056 mmoles
# [14] = 5th addition, total 1.341 mmoles
compound,measurement,setting,value
Corn Oil,absorption of vitamin A,[1],complete
same,vitamin A absorbed,"[1]; po, 180 min",77%
C[C@]12CC[C@@H]3c4ccc(O)cc4CC[C@H]3[C@@H]1CC[C@@H]2O [estradiol],estradiol remaining in 2:1:2 micellar composition,[2]; with phosphatidyl choline,70-75%
same,estradiol remaining associated with 2:1:2 micellar composition,[2]; without phosphatidyl choline,about 60%
same,initial concentrations in plasma of estradiol relative to lymph,"[3]; 2:1:2 composition, excess bile salts",greater than those in lymph
same,estradiol co-absorbed with lipid and entering circulation via thoracic lymph,[3]; 2:1:2 fatty acids:monoglycerides:bile salts,25-50%
heparin,absorption from large intestine relative to small intestine,[4]; in vivo,twice
same,absorption without micelle formulation,[4]; in vivo,poorly absorbed
same,"concentration in mixed micelle for potentiation, large intestine relative to small intestine",[4]; in vivo,approximately one-fourth
same,effect of mixed micelles on absorption,[4]; in vivo,promotes the absorption
CC1=C(/C=C/C(C)=C/C=C/C(C)=C/CO)C(C)(C)CCC1 [Vitamin A],Schleirin,[5]; [10],none
same,Temp. to attain a clear solution,[5]; [10],20 °C
same,Time to attain a clear solution,"[5]; 1st addition, total 0.277 mmoles, 20° C.",1 min
same,Viscosity,[5]; [10],normal
same,Schleirin,[5]; [11],minimal
same,Temp. to attain a clear solution,[5]; [11],20 °C
same,Time to attain a clear solution,"[5]; 2nd addition, total 0.518 mmoles, 20° C.",1 min
same,Viscosity,[5]; [11],normal
same,Schleirin,[5]; [12],medium
same,Temp. to attain a clear solution,[5]; [12],37 °C
same,Time to attain a clear solution,"[5]; 3rd addition, total 0.794 mmoles, 37° C.",5 min
same,Viscosity,[5]; [12],thicker
same,Schleirin,[5]; [13],medium
same,Temp. to attain a clear solution,[5]; [13],37 °C
same,Time to attain a clear solution,"[5]; 4th addition, total 1.056 mmoles, 37° C.",10 min
same,Viscosity,[5]; [13],viscous
same,Schleirin,[5]; [14],extensive
same,Temp. to attain a clear solution,[5]; [14],46 °C
same,Time to attain a clear solution,"[5]; 5th addition, total 1.341 mmoles, 46° C.",10 min
same,Viscosity,[5]; [14],very viscous
same,total vitamin A added (capacity of the composition),"[5]; approximately 1 gm of the composition, after 5th addition",1.341 mmol
CC(=O)[C@H]1CC[C@H]2[C@@H]3CCC4=CC(=O)CC[C@]4(C)[C@H]3CC[C@]12C [progesterone],biological activity,[6]; in combination with cholesterol or its esters,good sustained biological activity
CCCCCCCCCCCCCCCCCC(=O)O [stearic],absorbed fatty acid transported in the lymph,[7],85%
same,absorption of fatty acid,[7],30-45%
CCCCCCCCCCCC(=O)O [lauric],absorbed fatty acid transported in the lymph,[7],15-55%
CCCCCCCCCCCCCC(=O)O [myristic],absorbed fatty acid transported in the lymph,[7],68-80%
same,absorption of fatty acid,[7],80-90%
CCCCC/C=C\C/C=C\CCCCCCCC(=O)O [linoleic],absorption into lymph compared with saturated fatty acids,[7],more rapidly and to a greater extent
CCCCCCCC/C=C\CCCCCCCC(=O)OC[C@@H](O)COP(=O)([O-])OCC[N+](C)(C)C [oleoyl lysophosphatidyl choline],increase in triglyceride and phospholipid in lymphatic transported fat,[8]; versus lysophosphatidyl choline from mainly saturated phosphatidyl choline,100%
COC1=C(OC)C(=O)C(C/C=C(\C)CC/C=C(\C)CC/C=C(\C)CC/C=C(\C)CC/C=C(\C)CC/C=C(\C)CC/C=C(\C)CC/C=C(\C)CC/C=C(\C)CCC=C(C)C)=C(C)C1=O [ubidecarenone],absorption of ubidecarenone,[9]; drug alone,2.3%
same,absorption of ubidecarenone,[9]; in mixture of C12-18 fatty acids and monoglycerides,8.3%
CCCCCCCCCC(=O)O [decanoic],absorbed fatty acid transported in the lymph,[7],5-20%
COC1=CC(=O)C[C@@H](C)[C@]12Oc1c(Cl)c(OC)cc(OC)c1C2=O [griseofulvin],absorption,[6]; co-administered with high fat content meal or in oil and water emulsion,enhanced
O=c1[nH]cc(F)c(=O)[nH]1 [5-fluorouracil],absorption in mixed micelle versus alone,[4]; large intestine,greater
same,absorption in mixed micelle versus alone,[4]; stomach or small intestine,little difference
lysophosphatidyl choline,absorption of lysophosphatidyl choline,[8]; in vivo,rapidly absorbed intact
CCCCCCCCCCCCCCCC(=O)O [palmitic],absorbed fatty acid transported in the lymph,[7],85%
same,absorption of fatty acid,[7],65-70%
[H]/N=C(/N)N[C@H]1[C@H](O)[C@@H](O)[C@H](O[C@@H]2O[C@@H](C)[C@](O)(C=O)[C@H]2O[C@@H]2O[C@@H](CO)[C@H](O)[C@@H](O)[C@@H]2NC)[C@@H](N/C(N)=N\[H])[C@@H]1O [streptomycin],absorption from rectum and large intestine,[4]; in vivo,comparable
same,absorption via rectum and large intestine versus comparable dose administered duodenally,[4]; in vivo,markedly greater
same,absorption without micelle formulation,[4]; in vivo,poorly absorbed
gentamycin,absorption from rectum and large intestine,[4]; bile salt: mixed lipid micelle,comparable
same,absorption via rectum and large intestine versus comparable dose administered duodenally,"[4]; mixed lipid micelle, duodenal concentration even four times higher",markedly greater
CCCCCCCCCCC(=O)O[C@H]1CC[C@H]2[C@@H]3CCC4=CC(=O)CC[C@]4(C)[C@H]3CC[C@]12C [testosterone undecanoate],biological activity,[6]; peanut oil solution versus aqueous micro-crystalline suspension,more biologically active
